Like-named read-outs stand apart in the source and are kept apart here.

For this assay, the target named is T1, MCH R1 (melanine-concentrating hormone receptor-1) (Homo sapiens, UniProt Q99705).
T1 construct: purchased Euroscreen, Gosselies, Belgium
The assay is described as follows: Inhibitory effects on MCH R1 binding (Eu-MCH time-resolved fluorescence binding assay). As for the experimental part: First, MCH R1 (melanine-concentrating hormone receptor-1; Euroscreen, Gosselies, Belgium), 1 μM Europium-labeled melanine-concentrating hormone (Eu-MCH, PerkinElmer, Turku, Finland) and 1 mM melanine-concentrating hormone (MCH, #070-47, Phoenix, Belmont Calif., USA) were kept at 4° C. for ready use. 1 μM Eu-MCH and 1 mM MCH were diluted with an experimental solution (25 mM HEPES pH 7.4, 5 mM MgCl2, 1 mM CaCl2 and 0.5% (w/w) BSA) to 8 nM (final reaction concentration: 2 nM) and 2 μM (final reaction concentration: 0.5 μM), respectively. The compounds prepared in the Examples (“Test compounds”) were dissolved in the experimental solution in concentration of 4 nM to 40 μM (final reaction concentration: 1 nM to 10 μM). MCH R1 (200 assays/vial) was homogeneously dispersed in the experimental solution.
Then, 100 μl/well of the following reaction mixture was added to the wells of a microplate (Multiwell 96 well filter plates PN5020, Pall Co., Ann Arbor, Mich., USA) equipped with a filter paper, with an 8-channel pipette (multi 8-channel, Eppendorf, Hamburg, Germany). Specifically, to the wells of a non-specific binding control group, 25 μl of Eu-MCH, 50 μl of MCH R1 and 25 μl of MCH were added. Further, 25 μl of the experimental solution supplemented with 10% (w/w) of DMSO, 25 μl of Eu-MCH and 50 μl of MCH R1 were added to the wells of a total binding control group, while 25 μl of the test compounds, 25 μl Eu-MCH and 50 μl of MCH R1 were added to the wells of an experimental group. Subsequently, the microplate was shaken gently for 15 seconds and kept at room temperature for 90 minutes to allow the reaction to take place. Then, the plate was washed with a microplate washer (EMBLA, Molecular Devices) by washing three times with 300 μl of a washing solution (25 mM HEPES pH 7.4, 5 mM MgCl2, 1 mM CaCl2) to remove the residual unreacted Eu-MCH. Moisture was removed from the bottom of the wells and 150 μl of dissociation solution (DELFIA Enhancement solution, PerkinElmer, Turku, Finland) was added to each well, followed by keeping the plate at room temperature for 2 to 4 hours. Subsequently, time-resolved fluorescence (TRF) values were measured with a multilabel counter (Victor2, PerkinElmer, Turku, Finland) (emission wave length: 615 nm, excitation wave length: 340 nm). The inhibition rate based on the time-resolved fluorescence data was calculated using the following Equation (I). Inhibition rate of time-resolved fluorescence (%)=[(Average TRF value of the total binding group−Time-resolved fluorescence value of the test compound)/(Average TRF value of the total binding group−Average TRF value of the non-specific binding group)]×100 (I)

The mark [1] stands for this setting: concentration inhibiting the binding of MCH (Eu-MCH, 2 nM) to MCH R1 by 50% in vitro, TRF readout, test range 1 nM to 10 μM, read-out: IC50.

T1 sequence (Q99705 whole entry, species assumed): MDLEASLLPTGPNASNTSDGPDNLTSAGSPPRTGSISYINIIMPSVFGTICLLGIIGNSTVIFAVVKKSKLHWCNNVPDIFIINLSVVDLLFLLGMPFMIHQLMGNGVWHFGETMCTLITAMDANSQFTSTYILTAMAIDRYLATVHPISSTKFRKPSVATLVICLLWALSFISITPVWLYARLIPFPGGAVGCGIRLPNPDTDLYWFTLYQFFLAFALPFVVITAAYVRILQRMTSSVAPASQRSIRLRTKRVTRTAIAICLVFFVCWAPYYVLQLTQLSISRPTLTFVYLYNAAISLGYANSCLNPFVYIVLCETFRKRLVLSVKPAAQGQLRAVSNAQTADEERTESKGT

By IC50 is commonly meant the concentration needed to halve the response being measured. `CC(=O)Nc1cccc(C2CCN(CCCn3c(-c4ccc(F)cc4)nc4ccc(Cl)cc43)CC2)c1` [Example 30, 2-(4-fluorophenyl)-1-{3-[4-(3-acetylaminophenyl)piperidin-1-yl]propyl}-6-chloro-1H-benzimidazole]: the concentration for half-maximal inhibition (IC50) under setting [1] is 13 nM.

On to `CC(=O)Nc1cccc(C2CCN(CCCn3c(-c4ccc(Cl)cc4)nc4ccc(F)cc43)CC2)c1` [Example 31, 2-(4-chlorophenyl)-1-{3-[4-(3-acetylaminophenyl)piperidin-1-yl]propyl}-6-fluoro-1H-benzimidazole], for which the concentration for half-maximal inhibition (IC50) under setting [1] was 11 nM.

As to `CC(=O)Nc1cccc(C2CCN(CCCn3c(-c4ccccc4)nc4ccc([N+](=O)[O-])cc43)CC2)c1` [Example 32, 2-phenyl-1-{3-[4-(3-acetylaminophenyl)piperidin-1-yl]propyl}-6-nitro-1H-benzimidazole], under setting [1], the IC50 came to 10 nM.

Turning to `CC(=O)Nc1cccc(C2CCN(CCCn3c(-c4ccccc4F)nc4ccc(Cl)cc43)CC2)c1` [Example 33, 2-(2-fluorophenyl)-1-{3-[4-(3-acetylaminophenyl)piperidin-1-yl]propyl}-6-chloro-1H-benzimidazole], under setting [1], the half-maximal inhibitory concentration (IC50) came out at 148 nM.

Consider `CC(=O)Nc1cccc(C2CCN(CCCn3c(-c4cccc(F)c4)nc4ccc(Cl)cc43)CC2)c1` [Example 34, 2-(3-fluorophenyl)-1-{3-[4-(3-acetylaminophenyl)piperidin-1-yl]propyl}-6-chloro-1H-benzimidazole], for which, under setting [1], the 50% inhibitory concentration (IC50) was 8 nM.

Consider `CC(=O)Nc1cccc(C2CCN(CCCn3c(-c4cccc(Cl)c4)nc4ccc(Cl)cc43)CC2)c1` [Example 35, 2-(3-chlorophenyl)-1-{3-[4-(3-acetylaminophenyl)piperidin-1-yl]propyl}-6-chloro-1H-benzimidazole], for which the IC50 under setting [1] stood at 7 nM.

Consider `CC(=O)Nc1cccc(C2CCN(CCCn3c(-c4ccc(Cl)cc4)nc4ccc(Br)cc43)CC2)c1` [Example 36, 2-(4-chlorophenyl)-1-{3-[4-(3-acetylaminophenyl)piperidin-1-yl]propyl}-6-bromo-1H-benzimidazole], for which, under setting [1], the 50% inhibitory concentration (IC50) was 17 nM.

On to `CC(=O)Nc1cccc(C2CCN(CCCn3c(-c4ccccc4Cl)nc4cc(C)c(C)cc43)CC2)c1` [Example 37, 2-(2-chlorophenyl)-1-{3-[4-(3-acetylaminophenyl)piperidin-1-yl]propyl}-5,6-dimethyl-1H-benzimidazole], for which the 50% inhibitory concentration (IC50) under setting [1] was 39 nM.

Regarding `CC(=O)Nc1cccc(C2CCN(CCCn3c(-c4cccc(Cl)c4)nc4cc(C)c(C)cc43)CC2)c1` [Example 38, 2-(3-chlorophenyl)-1-{3-[4-(3-acetylaminophenyl)piperidin-1-yl]propyl}-5,6-dimethyl-1H-benzimidazole], the IC50 under setting [1] amounted to 3 nM.

For `CC(=O)Nc1cccc(C2CCN(CCCn3c(-c4ccc(Cl)cc4)nc4c(C)c(C)ccc43)CC2)c1` [Example 39, 2-(4-chlorophenyl)-1-{3-[4-(3-acetylaminophenyl)piperidin-1-yl]propyl}-4,5-dimethyl-1H-benzimidazole], the IC50 under setting [1] came out at 7 nM.

On to `CC(=O)Nc1cccc(C2CCN(CCCn3c(-c4ccccc4Cl)nc4ccc([N+](=O)[O-])cc43)CC2)c1` [Example 40, 2-(2-chlorophenyl)-1-{3-[4-(3-acetylaminophenyl)piperidin-1-yl]propyl}-6-nitro-1H-benzimidazole], for which the IC50 under setting [1] came to 82 nM.

In the case of `CC(=O)Nc1cccc(C2CCN(CCCn3c(-c4cccc(Cl)c4)nc4ccc([N+](=O)[O-])cc43)CC2)c1` [Example 41, 2-(3-chlorophenyl)-1-{3-[4-(3-acetylaminophenyl)piperidin-1-yl]propyl}-6-nitro-1H-benzimidazole], under setting [1], the IC50 was found to be 635 nM.

Regarding `CC(=O)Nc1cccc(C2CCN(CCCn3c(-c4ccc(Cl)cc4)nc4ccc([N+](=O)[O-])cc43)CC2)c1` [Example 42, 2-(4-chlorophenyl)-1-{3-[4-(3-acetylaminophenyl)piperidin-1-yl]propyl}-6-nitro-1H-benzimidazole], the 50% inhibitory concentration (IC50) was 111 nM.

With `CC(=O)Nc1cccc(C2CCN(CCCn3c(-c4ccccc4)nc4ccc(Br)cc43)CC2)c1` [Example 43, 2-phenyl-1-{3-[4-(3-acetylaminophenyl)piperidin-1-yl]propyl}-6-bromo-1H-benzimidazole], the IC50 under setting [1] is 3 nM.

On to `CC(=O)Nc1cccc(C2CCN(CCCn3c(-c4cc(F)c(F)c(F)c4F)nc4ccccc43)CC2)c1` [Example 44, 2-(2,3,4,5-tetrafluorophenyl)-1-{3-[4-(3-acetylaminophenyl)piperidin-1-yl]propyl}-1H-benzimidazole], for which, under setting [1], the IC50 worked out at 77 nM.

`CC(=O)Nc1cccc(C2CCN(CCCn3c(-c4ccc(C(F)(F)F)cc4)nc4ccccc43)CC2)c1` [Example 45, 2-(4-trifluoromethylphenyl)-1-{3-[4-(3-acetylaminophenyl)piperidin-1-yl]propyl}-1H-benzimidazole]: the 50% inhibitory concentration (IC50) under setting [1] stood at 3 nM.

In the case of `CC(=O)Nc1cccc(C2CCN(CCCn3c(-c4ccc(-c5ccccc5)cc4)nc4ccccc43)CC2)c1` [Example 46, 2-(4-biphenyl)-1-{3-[4-(3-acetylaminophenyl)piperidin-1-yl]propyl}-1H-benzimidazole], the IC50 under setting [1] was found to be 8 nM.

As to `CC(=O)Nc1cccc(C2CCN(CCCn3c(-c4ccc(Oc5ccccc5)cc4)nc4ccccc43)CC2)c1` [Example 47, 2-(4-phenoxyphenyl)-1-{3-[4-(3-acetylaminophenyl)piperidin-1-yl]propyl}-1H-benzimidazole], under setting [1], the 50% inhibitory concentration (IC50) stood at 42 nM.

For the compound `CC(=O)Nc1cccc(C2CCN(CCCn3c(-c4ccc(F)cc4)nc4ccccc43)CC2)c1` [Example 48, 2-(4-fluorophenyl)-1-{3-[4-(3-acetylaminophenyl)piperidin-1-yl]propyl}-1H-benzimidazole], under setting [1], the IC50 stood at 56 nM.

For `CC(=O)Nc1cccc(C2CCN(CCCn3c(-c4ccc(Cl)cc4)nc4cc(C)cc(C)c43)CC2)c1` [Example 49, 2-(4-chlorophenyl)-1-{3-[4-(3-acetylaminophenyl)piperidin-1-yl]propyl}-5,7-dimethyl-1H-benzimidazole], under setting [1], the IC50 is 197 nM.

Take `CC(=O)Nc1cccc(C2CCN(CCCn3c(-c4ccc(F)c(F)c4)nc4ccccc43)CC2)c1` [Example 50, 2-(3,4-difluorophenyl)-1-{3-[4-(3-acetylaminophenyl)piperidin-1-yl]propyl}-1H-benzimidazole]: the IC50 under setting [1] came out at 4 nM.

With `CC(=O)Nc1cccc(C2CCN(CCCn3c(-c4ccc(C#N)cc4)nc4ccccc43)CC2)c1` [Example 51, 2-(4-cyanophenyl)-1-{3-[4-(3-acetylaminophenyl)piperidin-1-yl]propyl}-1H-benzimidazole], under setting [1], the IC50 stood at 16 nM.

Consider `CC(=O)Nc1cccc(C2CCN(CCCn3c(-c4cccc(C#N)c4)nc4ccccc43)CC2)c1` [Example 52, 2-(3-cyanophenyl)-1-{3-[4-(3-acetylaminophenyl)piperidin-1-yl]propyl}-1H-benzimidazole], for which, under setting [1], the IC50 came out at 15 nM.

For the compound `CC(=O)Nc1cccc(C2CCN(CCCn3c(-c4ccc(Cl)cc4F)nc4ccccc43)CC2)c1` [Example 53, 2-(4-chloro-2-fluorophenyl)-1-{3-[4-(3-acetylaminophenyl)piperidin-1-yl]propyl}-1H-benzimidazole], under setting [1], the half-maximal inhibitory concentration (IC50) was determined as 1 nM.

In the case of `CC(=O)Nc1cccc(C2CCN(CCCn3c(-c4ccc(F)cc4Cl)nc4ccccc43)CC2)c1` [Example 54, 2-(2-chloro-4-fluorophenyl)-1-{3-[4-(3-acetylaminophenyl)piperidin-1-yl]propyl}-1H-benzimidazole], the IC50 under setting [1] was 4 nM.

For the origin of these results see US8198307B2, “Imidazole derivatives having aryl piperidine substituent, method for preparation thereof and pharmaceutical compositions containing same” (Korea Research Institute of Chemical Technology, priority 2007, dated 2012).
